≈ marks a conversion by molar mass, not a printed value. Calls of active or inactive are those of the source. No cut-off for these calls is given here.

Data set [1] is described as follows: Solubility of compound incubated for 5 mins by absorbance based assay. It is filed as physicochemical.
Data set [2] deals with MDA-MB-468. The data set can be described thus: Induction of cell death in human MDA-MB-468 cells at 0.05 to 200 uM incubated for 72 hrs by resazurin based assay. In kind it is functional. Conditions: dose 0.05-200 µM.
Data set [3] deals with MCF7. Put plainly: Inhibition of cell viability in human MCF7 cells at 100 uM incubated for 72 hrs by resazurin based assay. In kind it is functional.
For data set [4], the system named is MCF7. The data set can be described thus: Induction of cell death in human MCF7 cells at 0.05 to 200 uM incubated for 72 hrs by resazurin based assay. In kind it is functional. Conditions: dose 0.05-200 µM.
Data set [5] has as its system MDA-MB-231. The data set can be described thus: Induction of cell death in human MDA-MB-231 cells at 0.05 to 200 uM incubated for 72 hrs by resazurin based assay. It is filed as functional. The note with it: dose 0.05-200 µM.
Data set [6] concerns MDA-MB-231. The data set can be described thus: Inhibition of cell viability in human MDA-MB-231 cells at 100 uM incubated for 72 hrs by resazurin based assay. In kind it is functional.
Data set [7] relates to MDA-MB-468. Put plainly: Inhibition of cell viability in human MDA-MB-468 cells at 100 uM incubated for 72 hrs by resazurin based assay. In kind it is functional.
Data set [8] deals with MCF7. The data set can be described thus: Cytotoxicity against human MCF7 cells assessed as cell viability at 100 uM incubated for 72 hrs by resazurin based assay relative to control. In kind it is functional. The note with it: read-out: Activity.
Data set [9] concerns the target T1, Dihydrofolate reductase (Homo sapiens) (UniProt P00374).
T1 sequence (whole entry): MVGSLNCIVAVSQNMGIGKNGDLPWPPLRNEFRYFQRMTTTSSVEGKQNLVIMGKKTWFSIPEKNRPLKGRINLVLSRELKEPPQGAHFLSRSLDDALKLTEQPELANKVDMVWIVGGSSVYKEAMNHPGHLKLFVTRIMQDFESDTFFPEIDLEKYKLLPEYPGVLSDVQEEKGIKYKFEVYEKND
Conditions: MDA-MB-468, dose 10.0 nM, time 24.0 hrs.

In data set [10] the test system is MDA-MB-231. The data set can be described thus: Cytotoxicity against human MDA-MB-231 cells assessed as cell viability at 100 uM incubated for 72 hrs by resazurin based assay relative to control. Conditions: read-out: Activity. It is filed as functional.
Data set [11] addresses T1, Dihydrofolate reductase (Homo sapiens). The note with it: MDA-MB-468, dose 1.0 nM, time 24.0 hrs.
Data set [12] concerns MDA-MB-231. Put plainly: Inhibition of cell viability in human MDA-MB-231 cells upto 100 uM incubated for 72 hrs by resazurin based assay relative to control. In kind it is functional. Conditions: up to 100 µM.
Data set [13] deals with MDA-MB-468. The data set can be described thus: Cytotoxicity against human MDA-MB-468 cells assessed as cell viability at 100 uM incubated for 72 hrs by resazurin based assay relative to control. It is filed as functional. The note with it: read-out: Activity.
The test system of data set [14] is MDA-MB-468. Put plainly: Inhibition of cell viability in human MDA-MB-468 cells upto 100 uM incubated for 72 hrs by resazurin based assay relative to control. It is filed as functional. The note with it: up to 100 µM.
The subject of data set [15] is MCF7. Put plainly: Inhibition of cell viability in human MCF7 cells upto 100 uM incubated for 72 hrs by resazurin based assay relative to control. The note with it: up to 100 µM. It is filed as functional.

In [1], `Nc1ncc(-c2ccc3ccccc3c2)c(N)n1` yielded a solubility at 5 min greater than 100 µM. The result in [2], in [4] and in [5] was Active. For the same compound, the inhibition result in data set [3], in data set [6] and in data set [7] was “Active” each time.
`Nc1ncc(-c2ccc(Cl)c(Cl)c2)c(N)n1` showed a solubility at 5 min in data set [1] greater than 100 µM.
In [1], `CN(Cc1ccccc1)c1ccc(-c2cnc(N)nc2N)cc1[N+](=O)[O-]` came in with a solubility at 5 min of roughly 10 µM (≈ 3.5 µg/mL). In [3], the inhibition entry was “inactive”.
`NCCCCCCNc1ccc(-c2cnc(N)nc2N)cc1[N+](=O)[O-]` came in with a solubility at 5 min in data set [1] greater than 100 µM. For the same compound, the result in data set [2], in data set [4] and in data set [5] was Active. Also, the inhibition result in data set [3], in data set [6] and in data set [7] was “Active” each time.
On to `Cc1ccc(-c2cnc(N)nc2N)cc1`, for which the inhibition result in data set [3] was “inactive”.
For the compound `COc1cc(-c2cnc(N)nc2N)ccc1C`, the solubility at 5 min in data set [1] is greater than 100 µM.
Turning to `Nc1ncc(-c2ccc(F)cc2Br)c(N)n1`, the inhibition result in data set [3], in [6] and in data set [7] was “inactive” throughout.
Consider `Nc1ncc(-c2ccc(N3CCCC3)c([N+](=O)[O-])c2)c(N)n1`, for which, in [1], the solubility at 5 min was greater than 100 µM. Further, the outcome in [2], in [4] and in [5] was Active. In addition, the inhibition result in data set [3], in data set [6] and in [7] was “Active” in each case.
Regarding `CC(C)c1ccc(-c2cnc(N)nc2N)cc1`, in data set [1], the solubility at 5 min was greater than 100 µM. In data set [3], the inhibition entry was “inactive”.
With `Nc1ncc(-c2ccc(Cl)c(F)c2)c(N)n1`, the inhibition result in data set [3] is “inactive”.
In data set [1], `COc1ccc(CNc2ccc(-c3cnc(N)nc3N)cc2[N+](=O)[O-])cc1` came in with a solubility at 5 min of roughly 10 µM (≈ 3.66 µg/mL). Further, the result in data set [2], in data set [4] and in [5] was Active. For the same compound, the inhibition entry in [3], in data set [6] and in data set [7] was “Active” in each case.
Consider `Nc1ncc(-c2cccc(Cl)c2)c(N)n1`, for which, in data set [1], the solubility at 5 min is greater than 100 µM.
Regarding `CC(C)(C)c1ccc(-c2cnc(N)nc2N)cc1`, in [7], the inhibition entry is “Active”.
Take `CCc1nc(N)nc(N)c1-c1ccc(Cl)cc1` [PYRIMETHAMINE]: the solubility at 5 min in [1] was greater than 100 µM. Also, the viability at 100 µM in data set [8], in data set [10] and in data set [13] was roughly 50% each time. Further, the inhibition entry in data set [9] was “Active”. Moreover, the inhibition in data set [11] was 40%. Further, the “inhibition (INH)” value in data set [12], in [14] and in [15] was roughly 50% each time.
In data set [1], `Nc1ncc(-c2ccc(Cl)c([N+](=O)[O-])c2)c(N)n1` registered a solubility at 5 min greater than 100 µM.

The values are drawn from ChEMBL document CHEMBL5537142 (Eur J Med Chem, 2024).
